Two molecules from ChEMBL document CHEMBL2440118, “Triazole-dithiocarbamate based selective lysine specific demethylase 1 (LSD1) inactivators inhibit gastric cancer cell growth, invasion, and migration” (J Med Chem, 2013) can be followed below.

Experiment [1] concerns the target Lysine-specific histone demethylase 1A (Homo sapiens) (UniProt O60341). The settings on record: 0.5 to […].
Experiment [2] has the same target. The experiment can be described thus: Inhibition of LSD1-snail interaction in human MGC803 cells at 0.25 uM after 48 hrs by immunoprecipitation assay. It counts as cell-based. The settings on record: MGC-803.
Experiment [3] shares this target. In words: Inhibition of LSD1 in human MGC803 cells assessed as elevation of E-cadherin protein expression at 0.02 to 1 uM after 48 hrs by Western blotting analysis relative to control. It is filed as cell-based. The settings on record: MGC-803. A general note: Immunoblotting shows a protein as a band on a membrane.
Experiment [4] shares this target.
The target is the same in experiment [5]. The settings on record: 0.5 to […]. This is another data set of the same source.
The target is the same in experiment [6]. To be noted: 0.5 to […]. This is another data set of the same source.
Experiment [7] has the same target. The source holds these as a separate data set.
Experiment [8] shares this target. The settings on record: 312.5 uM.
The target in experiment [9] is T1, Amine oxidase [flavin-containing] B (Homo sapiens, UniProt P27338).
T1 sequence (P27338 whole entry): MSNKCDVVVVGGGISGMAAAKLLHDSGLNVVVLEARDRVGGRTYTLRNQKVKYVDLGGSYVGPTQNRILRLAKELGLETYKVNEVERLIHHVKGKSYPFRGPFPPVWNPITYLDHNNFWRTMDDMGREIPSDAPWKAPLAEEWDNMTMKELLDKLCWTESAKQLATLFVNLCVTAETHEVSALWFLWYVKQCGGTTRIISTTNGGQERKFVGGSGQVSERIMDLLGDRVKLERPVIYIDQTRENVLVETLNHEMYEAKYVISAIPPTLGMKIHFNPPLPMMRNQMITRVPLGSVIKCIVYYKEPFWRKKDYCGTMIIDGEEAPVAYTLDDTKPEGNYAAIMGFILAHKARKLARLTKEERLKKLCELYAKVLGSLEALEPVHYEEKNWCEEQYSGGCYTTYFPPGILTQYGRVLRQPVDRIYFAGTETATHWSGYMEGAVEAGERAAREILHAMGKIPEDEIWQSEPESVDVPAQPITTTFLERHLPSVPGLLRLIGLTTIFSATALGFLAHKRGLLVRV

Experiment [10] deals with T2, Amine oxidase [flavin-containing] A (Homo sapiens, UniProt P21397).
T2 sequence (P21397 whole entry): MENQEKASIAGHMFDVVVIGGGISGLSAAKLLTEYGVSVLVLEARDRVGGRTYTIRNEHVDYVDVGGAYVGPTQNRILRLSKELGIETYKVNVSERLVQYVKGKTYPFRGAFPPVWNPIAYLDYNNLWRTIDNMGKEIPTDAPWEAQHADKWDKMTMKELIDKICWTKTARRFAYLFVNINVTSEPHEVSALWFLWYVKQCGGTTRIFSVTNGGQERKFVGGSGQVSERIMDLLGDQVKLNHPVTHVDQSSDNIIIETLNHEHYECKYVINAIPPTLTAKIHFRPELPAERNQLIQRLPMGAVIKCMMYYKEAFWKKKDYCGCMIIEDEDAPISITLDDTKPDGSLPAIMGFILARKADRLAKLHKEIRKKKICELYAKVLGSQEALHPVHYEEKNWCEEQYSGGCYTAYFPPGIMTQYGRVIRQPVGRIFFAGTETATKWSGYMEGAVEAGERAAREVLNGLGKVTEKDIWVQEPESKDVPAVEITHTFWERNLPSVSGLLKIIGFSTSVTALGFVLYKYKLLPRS

The source made the active and inactive calls. No cut-off for these calls is given here.

The IC50 is the concentration that gives 50% inhibition. A higher IC50 goes with lower potency. For the molecule `Cc1ccc(Cn2cc(CSC(=S)N3CCN(C(=O)OC(C)(C)C)CC3)nn2)cc1`, the inhibition result in [1], in experiment [2], in experiment [3], in experiment [4], in experiment [5] and in experiment [6] was “Active” each time. Also, the inhibition entry in experiment [7] and in experiment [8] was “Active” in each case. The IC50 in experiment [9] and in experiment [10] was above 1.25 mM each time.

Regarding `CC(C)(C)OC(=O)N1CCN(C(=S)SCc2cn(Cc3ccccc3F)nn2)CC1`, the IC50 was 0.791 mM in [9] and above 1.25 mM in [10].
